Experimental data published in article PMC4137327 (Journal of neurochemistry, 2014).
“Also recorded” adds a separate entry of the source. Like-named read-outs stand apart in the source and are kept apart here. Ends that are not written are not given here.

Columns and labels:
[1] = target: T1, Ang-(1–7) peptidase purified from sheep brain medulla (Ovis aries, UniProt A0ACI6RWG7); assay: Inhibitor profile of 125I-Ang-; assay type: biochemical; details: cocktail; for effect of inhibitor on peptidase activity (in words): enriched medullary peptidase, 60 min, 37°C
[2] = target: T1, Ang-(1–7) peptidase purified from sheep brain medulla
[3] = test system: ACE; details: read-out: reported IC50; ref Doulut et al. 1993; cited from earlier work
[4] = target: Ang-(1–7) peptidase activity in CSF (Ovis aries, UniProt A0ACI6RWG7); assay: Inhibitor profile of 125I-Ang-; assay type: biochemical, sheep; details: CSF 25 µl, cocktail, 60 min, 37°C

O[C@@H](CS)[C@@H](O)CS (racemic) [DTT, dithiothreitol]
effect of inhibitor on peptidase activity (in words) ([1]; inhibitor 5 mM, N=3): partial inhibition

CC[C@H](C)[C@H](NC(=O)[C@H](Cc1ccc(O)cc1)NC(=O)[C@@H](NC(=O)[C@H](CCCNC(=N)N)NC(=O)[C@@H](N)CC(=O)O)C(C)C)C(=O)N[C@@H](Cc1cnc[nH]1)C(=O)N1CCC[C@H]1C(=O)N[C@@H](Cc1ccccc1)C(=O)O [Ang II]
hydrolysis of unlabeled peptide by the peptidase ([2]; HPLC analysis, unlabeled peptide 0.4 mM, 24 hours, 37°C): < 5%

CC(C)C[C@H](NC(=O)[C@@H](CC(=O)NO)Cc1ccccc1)C(=O)O [JMV-390, N-[3-[(hydroxyamino)carbonyl]-1-oxo-2(R)-benzylpropyl]-L-leucine]
effect on the Ang-(1–4) peak (in words) ([1]; 1 nM JMV-390, purified enzyme): reduced the Ang-(1–4) peak | effect on peptidase activity (in words) ([1]; 100 nM JMV-390, purified enzyme): essentially abolished activity | effect on the peak of Ang-(1–4) from unlabeled Ang-(1–7) (in words) ([2]; 10 µM JMV-390, Ang-(1–7) 400 µM, 24 hours, 37°C (Figure 6B)): abolished | IC50 [3]: 70 µM

O=S(=O)(F)Cc1ccccc1 [PMSF, phenylmethylsulfonyl fluoride]
effect of inhibitor on peptidase activity (in words) ([1]; inhibitor 100 µM, N=3): insensitive; also recorded: did not inhibit activity

c1cnc2c(c1)ccc1cccnc12 [o-phenanthroline]
effect of inhibitor on peptidase activity (in words) ([1]; inhibitor 1 mM, N=3): abolished peptidase activity; also recorded: sensitive

DRVYIHPFHL [Ang I]
hydrolysis of unlabeled peptide by the peptidase ([2]; sheep, purified brain medulla peptidase, 24 h, 400 µM): < 5%

aprotinin
effect of inhibitor on peptidase activity (in words) ([1]; inhibitor 80 µM): insensitive | Inhibitor Sensitivity (% of control) ([4]; inhibitor 80 µM): 100 % of control

B1: soybean trypsin inhibitor (protein, UniProt P01070 25-205, looked up)
Trypsin inhibitor A: DFVLDNEGNPLENGGTYYILSDITAFGGIRAAPTGNERCPLTVVQSRNELDKGIGTIISSPYRIRFIAEGHPLSLKFDSFAVIMLCVGIPTEWSVVEDLPEGPAVKIGENKDAMDGWFRLERVSDDEFNNYKLVFCPQQAEDDKCGDIGISIDHDDGTRRLVVSKNKPLVVQFQKLDKESL
effect of inhibitor on peptidase activity (in words) ([1]; inhibitor 100 µM, N=3): insensitive | Inhibitor Sensitivity (% of control) ([4]; inhibitor 100 µM, mean ± SEM): 101 ± 2 % of control
